Patent publication US5721229A, “Soluble forms of cephalosporins and treatment of animals” (Veterinary Pharmacy Corporation, priority 1995, dated 1998)
Read-outs that look alike come from different tables or passages of the source.

Experiments:
[1] = cited from earlier work
[2] = pH 4.5; cited from earlier work
all bacteria = assay: Sensitivity results by the University Diagnostic Laboratory, all bacteria (Example 6 table)
Description: (§1) The mixture and solution of the invention was tested in 100 to 200 pound pigs. […] A 30 pig pen was used as a non-treated control group to measure the efficacy of the treatment.

[3] = test system: Actinobacillis pleuropneumonia Type 7
Description: as §1

Description for Pasturella multocida: as §1
Excerpt for Step suis type 2: A farm was selected which was known to have problems with Step suis type 2 in its nursery pigs. The experiment involved two groups of 30 pigs, each group was in the same room, but in separate pens. Each pig was individually tagged and a tonsilar swab was done on day one and day seven. Cultures were run on all the swabs.
Description for Streptococcus suis Sp.: as §1

## CC1(C)S[C@@H]2[C@H](NC(=O)[C@H](N)c3ccccc3)C(=O)N2[C@H]1C(=O)O [ampicillin]
[1]; 95 mole-% of sodium carbonate
  pH on dissolution with sodium carbonate: 8.3
[1]; pH 8.3
  Mole-% of sodium carbonate sufficient to dissolve: 95 mole-%

## CC1=C(C(=O)O)N2C(=O)[C@@H](NC(=O)[C@H](N)c3ccccc3)[C@H]2SC1 [cephalexin monohydrate]
[2]
  Neutrally charged fraction: 100%

## CC1=C(C(=O)O)N2C(=O)[C@@H](NC(=O)[C@H](N)c3ccccc3)[C@H]2SC1 [cephalexin, α-aminobenzyl-3-desacetoxycephalosporin]
All bacteria; control group of 30 pigs
  Sensitivity results by the University Diagnostic Laboratory: sensitive to cephalexin
All bacteria; treated group of 970 pigs
  Sensitivity results by the University Diagnostic Laboratory: sensitive to cephalexin
Pasturella multocida
  Sensitivity to cephalexin: showed sensitivity
[3]
  Sensitivity to cephalexin: showed sensitivity
Streptococcus suis Sp.
  Sensitivity to cephalexin: showed sensitivity
Step suis type 2; isolates from treated group
  Sensitivity of the organism: sensitive
Step suis type 2; isolates from untreated control group
  Sensitivity of the organism: sensitive

## CC1(C)S[C@@H]2[C@H](NC(=O)[C@H](N)c3ccccc3)C(=O)N2[C@H]1C(=O)O [sodium ampicillin]
[1]; aqueous solution
  pH of aqueous solution: ~9.5
